Experimental data as given in patent US7915284B2, “2-aryl-6-phenylimidazo[1,2-a]pyridine derivatives, preparation thereof and therapeutic use thereof” (Sanofi-Aventis, priority 2006, dated 2011).

Target: T1, mouse Nurr1 receptor (Mus musculus, UniProt Q06219)
T1 construct: endogenously expressing the mouse Nurr1 receptor; host or cells: Neuro-2A (N2A) mouse neuroblastoma cells stably transfected with 8NBRE-luciferase
Experiment: In vitro activity on N2A cells (NBRE-luciferase reporter)
Type: cell-based
Details: N2A cell line endogenously expressing mouse Nurr1, stably transfected with 8NBRE-luciferase; 24 hours incubation
Protocol: Evaluation of the In Vitro Activity on N2A Cells
Assays consisted in measuring the in vitro activity of the compounds of the invention on a cell line (N2A) endogenously expressing the mouse Nurr1 receptor and stably transfected with the NOT binding response element (NBRE) coupled to the luciferase reporter gene. The EC50 values are between 0.01 and 1000 nM. The assays were carried out according to the procedure described below.
The Neuro-2A cell line comes from a standard commercial source (ATCC). The Neuro-2A clone was obtained from a spontaneous tumour originating from an A albino mouse strain, by R. J Klebe et col. This Neuro-2A line is subsequently stably transfected with 8NBRE-luciferase. The N2A-8NBRE cells are cultured until confluence in 75 cm^2 culture flasks containing DMEM supplemented with 10% of foetal calf serum, 4.5 g/l of glucose and 0.4 mg/ml of geneticin. After a week of culture, the cells are recovered with 0.25% trypsin for 30 seconds and then resuspended in DMEM without phenol red, containing 4.5 g/l of glucose and 10% of Hyclone delipidized serum, and deposited into transparent-bottom 96-well white plates. The cells are deposited at a rate of 60 000 per well in 75 μl for 24 hours before the addition of the products. The products are applied in 25 μl and incubated for a further 24 hours. On the day of the measurement, an equivalent volume (100 μl) of Steadylite are added to each well and then left for a period of 30 minutes in order to obtain complete cell lysis and maximum signal production. The plates are subsequently measured in a luminescence counter for microplates after having been sealed with an adhesive film. The products are prepared in the form of a stock solution at 10^−2M and then diluted in 100% of DMSO. Each product concentration is prediluted in culture medium before incubation with the cells, thus containing 0.625% final concentration of DMSO.

T1 sequence (Q06219 whole entry): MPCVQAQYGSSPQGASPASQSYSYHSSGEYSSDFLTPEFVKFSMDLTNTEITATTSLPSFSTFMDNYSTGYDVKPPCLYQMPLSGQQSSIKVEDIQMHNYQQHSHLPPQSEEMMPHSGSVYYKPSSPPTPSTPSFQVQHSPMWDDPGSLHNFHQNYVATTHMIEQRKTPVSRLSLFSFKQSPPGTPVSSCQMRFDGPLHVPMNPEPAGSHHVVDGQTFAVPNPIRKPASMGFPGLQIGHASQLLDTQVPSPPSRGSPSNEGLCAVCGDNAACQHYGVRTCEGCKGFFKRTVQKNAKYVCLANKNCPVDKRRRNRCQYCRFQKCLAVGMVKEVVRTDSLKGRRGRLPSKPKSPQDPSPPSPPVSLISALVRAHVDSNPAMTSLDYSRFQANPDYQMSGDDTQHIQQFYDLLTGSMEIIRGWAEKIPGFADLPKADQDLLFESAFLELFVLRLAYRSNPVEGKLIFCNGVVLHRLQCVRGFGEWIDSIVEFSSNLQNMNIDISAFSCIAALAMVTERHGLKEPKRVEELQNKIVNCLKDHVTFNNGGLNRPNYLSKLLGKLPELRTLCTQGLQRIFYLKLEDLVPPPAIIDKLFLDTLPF

Row | Compound | EC50 [nM]
1 | COCCOCc1cccc(-c2ccc3nc(-c4ccc5ccccc5c4)cn3c2)c1 [Compound 17, 6-[3-(2-Methoxyethoxymethyl)phenyl]-2-(naphthalen-2-yl)imidazo[1,2-a]pyridine] | 3.6
2 | Cc1ccc(-c2cn3cc(-c4cccc(COc5ccc(Cl)cc5)c4)ccc3n2)cc1 [Compound 31, 6-[3-(4-Chlorophenoxymethyl)phenyl]-2-p-tolylimidazo[1,2-a]pyridine] | 14
3 | CC(C)(O)c1cccc(-c2ccc3nc(-c4ccc(Cl)cc4)cn3c2)c1 [Compound 39, 2-{3-[2-(4-Chlorophenyl)imidazo[1,2-a]pyridin-6-yl]phenyl}propan-2-ol] | 0.7
4 | OCc1ccccc1-c1ccc2nc(-c3ccc(Cl)cc3)cn2c1 [Compound 40, {2-[2-(4-Chlorophenyl)imidazo[1,2-a]pyridin-6-yl]phenyl}methanol] | 0.7
